Data on five compounds can be found in article PMC7611167 (Journal of medicinal chemistry, 2019).

The test system of data set [1] is A/Puerto Rico/8/34 (H1N1). The format is cell-based, influenza A virus.
The target of the next data set is GSK3β (Homo sapiens, UniProt P49841). As to the kind of experiment: Kinase panel, GSK3β. The note with it: at 1μM. The format is biochemical.
The subject of data set [2] is influenza A/Puerto Rico/8/34 (H1N1). The note with it: mouse, in vivo, po, 30 mg/kg.
A further data set has as its system panel of 59 kinases. As to the kind of experiment: Kinase panel. The data set is classed as biochemical.
Another data set has as its target T1, aldehyde oxidase (AO) (Homo sapiens, UniProt Q06278).
T1 sequence (Q06278 1-1338): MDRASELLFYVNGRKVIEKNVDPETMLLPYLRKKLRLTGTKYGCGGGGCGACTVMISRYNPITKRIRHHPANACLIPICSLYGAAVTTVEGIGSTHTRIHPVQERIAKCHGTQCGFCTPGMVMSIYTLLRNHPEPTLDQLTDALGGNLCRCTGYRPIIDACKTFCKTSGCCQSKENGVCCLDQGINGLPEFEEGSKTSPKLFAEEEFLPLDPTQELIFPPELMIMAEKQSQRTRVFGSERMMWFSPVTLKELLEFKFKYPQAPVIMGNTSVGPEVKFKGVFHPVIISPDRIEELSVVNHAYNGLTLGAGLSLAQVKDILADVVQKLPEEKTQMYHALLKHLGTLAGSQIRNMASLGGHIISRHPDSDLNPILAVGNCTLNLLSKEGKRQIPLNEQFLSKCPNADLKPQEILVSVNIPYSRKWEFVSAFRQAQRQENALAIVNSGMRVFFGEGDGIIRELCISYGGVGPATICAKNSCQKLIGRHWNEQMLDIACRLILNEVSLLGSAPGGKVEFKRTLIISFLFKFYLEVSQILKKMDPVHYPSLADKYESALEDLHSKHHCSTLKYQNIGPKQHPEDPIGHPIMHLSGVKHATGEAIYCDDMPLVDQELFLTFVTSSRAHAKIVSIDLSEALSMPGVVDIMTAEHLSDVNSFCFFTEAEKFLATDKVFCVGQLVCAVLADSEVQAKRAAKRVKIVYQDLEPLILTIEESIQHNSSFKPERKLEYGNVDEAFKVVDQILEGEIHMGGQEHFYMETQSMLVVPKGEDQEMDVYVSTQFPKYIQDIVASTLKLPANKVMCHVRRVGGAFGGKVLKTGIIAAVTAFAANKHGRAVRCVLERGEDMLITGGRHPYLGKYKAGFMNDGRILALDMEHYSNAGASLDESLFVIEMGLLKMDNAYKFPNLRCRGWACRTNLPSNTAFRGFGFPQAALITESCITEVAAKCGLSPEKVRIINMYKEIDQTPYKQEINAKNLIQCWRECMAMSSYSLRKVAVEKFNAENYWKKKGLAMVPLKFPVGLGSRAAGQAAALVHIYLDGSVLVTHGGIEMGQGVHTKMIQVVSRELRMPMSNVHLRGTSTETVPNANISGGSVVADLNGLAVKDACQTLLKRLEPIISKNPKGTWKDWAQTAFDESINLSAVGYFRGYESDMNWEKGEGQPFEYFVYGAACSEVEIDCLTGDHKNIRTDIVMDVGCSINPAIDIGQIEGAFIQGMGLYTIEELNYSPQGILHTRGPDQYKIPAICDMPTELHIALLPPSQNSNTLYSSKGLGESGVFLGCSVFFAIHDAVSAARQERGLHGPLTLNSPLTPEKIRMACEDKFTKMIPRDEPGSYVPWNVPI
As to the kind of experiment: Aldehyde oxidase metabolism in human liver cytosol. The data set is classed as in vitro ADME. The note with it: 1 μM, 1 mg/mL protein, 37°C, up to 60 minutes, with or without Raloxifene.

GSK3β, sequence (P49841 whole entry, species assumed): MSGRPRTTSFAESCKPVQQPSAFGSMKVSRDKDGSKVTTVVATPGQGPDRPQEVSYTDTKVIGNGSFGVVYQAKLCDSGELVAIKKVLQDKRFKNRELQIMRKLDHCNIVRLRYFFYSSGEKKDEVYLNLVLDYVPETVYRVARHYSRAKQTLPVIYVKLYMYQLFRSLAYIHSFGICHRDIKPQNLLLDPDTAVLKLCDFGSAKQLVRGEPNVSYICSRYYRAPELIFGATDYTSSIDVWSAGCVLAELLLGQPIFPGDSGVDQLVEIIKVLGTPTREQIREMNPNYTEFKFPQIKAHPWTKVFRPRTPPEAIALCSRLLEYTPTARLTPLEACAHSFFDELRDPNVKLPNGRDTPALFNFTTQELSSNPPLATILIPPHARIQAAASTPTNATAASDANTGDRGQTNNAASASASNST

As for `N#Cc1cc(F)c2[nH]cc(-c3ncc(F)c(N[C@H]4C5CCC(CC5)[C@@H]4C(=O)O)n3)c2c1` [Compound 11d, (2S,3S)-3-((2-(5-cyano-7-fluoro-1H-indol-3-yl)-5-fluoropyrimidin-4-yl)amino) bicyclo[2.2.2]octane-2-carboxylic acid], the “A/Puerto Rico/8/34 SI (selectivity index, CC50/IC50)” value in data set [1] is on record as over 612.
Consider `CCOC(=O)C1=C[C@@H](OC(CC)CC)[C@H](NC(C)=O)[C@@H](N)C1` [Oseltamivir, reference compound], for which the “A/Puerto Rico/8/34 SI (selectivity index, CC50/IC50)” value in data set [1] was over 4132.
The same measure, in the same setting: for `O=C(O)[C@H]1C2CCC(CC2)[C@@H]1Nc1nc(-c2c[nH]c3c(F)cc(Cl)cc23)ncc1F` [Compound 11b, (2S,3S)-3-((2-(5-chloro-7-fluoro-1H-indol-3-yl)-5-fluoropyrimidin-4-yl)amino)bicyclo-[2.2.2]octane-2-carboxylic acid] the value was over 485.
Consider `O=C(O)[C@H]1C2CCC(CC2)[C@@H]1Nc1nc(-c2c[nH]c3c(F)cc(F)cc23)ncc1F` [Compound 11a, (2S,3S)-3-((2-(5,7-difluoro-1H-indol-3-yl)-5-fluoropyrimidin-4-yl)amino)bicyclo [2.2.2]octane-2-carboxylic acid], for which, on GSK3β, the GSK3β inhibition result is listed as “no inhibition”. Besides, in data set [2], the Body weight course entry was “regained weight from day 11”. In addition, the “Activity across a panel of 59 kinases” value with panel of 59 kinases was “inactive”.
With `c1ccc2cnncc2c1` [phthalazine], the “Aldehyde oxidase (AO) metabolism in human liver cytosol” value at aldehyde oxidase (AO) is reported as “AO metabolism in the normal range”.
